Reference: article PMC4760274, “Elongation factor 2 kinase promotes cell survival by inhibiting protein synthesis without inducing autophagy” (Cellular Signalling, 2016)
One block for each compound: values may come before it.

Columns and labels:
P-eEF2 in A549 cells = assay: eEF2 phosphorylation in A549 cells (western blot); format: cell-based, human; settings: 16 h, AZD8055 1 μM
Description: (§1) After treatment, cells were lysed in ice-cold lysis buffer containing 1% (v/v) Triton X-100 (215680010, Acros Organics), 50 mM Tris (T6066-1KG, Sigma-Aldrich)–HCl (258148-2.5 L, Sigma-Aldrich) pH 7.4, 50 mM NaCl (BP358-212, Fisher Scientific), 0.2 mM EDTA (BP120-500, Fisher Scientific), 0.2 mM EGTA (E1102, Melford), 50 mM β-glycerophosphate (G9422, Sigma-Aldrich), 1 mM Na3VO4 (S6508, Sigma-Aldrich), 15 mM β-mercaptoethanol (125472500, Acros Organics) and 1 × protease inhibitor cocktail (5056489001, Roche). Lysates were spun at 16,000 × g for 10 min at 4 °C; the supernatants were kept and total protein concentration was quantified by Bradford assay following the manufacturer's instructions.
(§2) These procedures were performed as described previously.
Cells were then treated with 10 mM 2-deoxyglucose (2DG), rapamycin (100 nM), AZD8055 (1 μM) or MG132 (10 μM) for 16 h. Cells were then lysed and samples containing equal amounts of protein were analysed by western blot using the indicated antibodies. Values given below each lane show quantitation of the signal for LC3II, corrected for the actin signal from multiple experiments as in (A) expressed as LC3II normalized to actin, mean ± SEM (control cells without treatment = 1; n = 3). (B) A549 cells were cultured as in (A) to induce eEF2K knockdown. A549 cells were transiently transfected with the GST-BHMT construct and maintained in full media in the presence or absence of AZD8055 (1 μM) for 16 h, in the presence of leupeptin and E64d. GST-BHMT was precipitated with glutathione agarose from the whole cell extracts (bottom panel). Values given below show the quantitation of data from multiple experiments as in (B) expressed as the level of BHMT fragment normalized to the control without IPTG, mean ± SEM (control cells without treatment = 1; n = 3). Values given below each lane show quantitation of the signal for P-eEF2, corrected for the eEF2 signal from multiple experiments as in (B) expressed as P-eEF2 normalized to eEF2, mean ± SEM (control cells without treatment = 1; n = 3). (C) Cells were treated as described in Supplemental Fig. S3, visualized by confocal microscopy and the rate of autophagosome–lysosome fusion was measured according to green/red fluorescence ratio which reflect the percentage of unfused LC3. Scale bar = 20 μm. (D) Data quantification of C, data are presented as means ± SEM. (n = 5) ***P < 0.001, obtained by two-way ANOVA (Dunnett's test). (E) Untransfected A549 cells were treated with AZD8055 and BafA1 as described in A, cell lysates were collected at T0, 1 and 3 h for immunoblotting analysis. Values given below each lane show quantitation of the signal for LC3II, corrected for the LC3I signal from multiple experiments as in (E) expressed as LC3II normalized to LC3I, mean ± SEM (control cells without treatment = 1; n = 3).

P-eEF2 in TSC2−/− MEFs = assay: eEF2 phosphorylation in TSC2−/− MEFs (western blot); format: cell-based, mouse; settings: TSC2−/− cells starved of glucose; rapamycin 20 nM; Fig. 4A
Description: as §1, with “instructions. […]” for “instructions.”
Fig. 4 eEF2K aids the survival of TSC2^−/− cells under glucose-starved conditions. […] Cells were then lysed and samples containing equal amounts of protein were analysed by western blot using the indicated antibodies. Values given below each lane show quantitation of the signal for LC3II, corrected for the actin signal or P-eEF2, corrected for the eEF2 signal from multiple experiments as in (A), mean ± SEM (control cells without treatment = 1; n = 3). […] The − signs of the Glucose row are barely visible, so the condition given for each lane is my best reading. / Panel A: which number belongs to which lane or group (Con, JAN-613, JAN-384) is judged from horizontal position only. […]

TSC2−/− MEFs = assay: caspase 3/7 assay in TSC2−/− MEFs; format: cell-based, mouse; settings: TSC2−/− cells; rapamycin 20 nM; 48 h; Fig. 4B
Description: Caspase 3/7 assays (G8090, Promega) were performed according to the manufacturer's instructions. Briefly, 10,000 cells/well were plated overnight in a 96-well plate. Cells were treated as described in the figure legends for the indicated time period. To measure caspase 3/7 activity, 50 μL of caspase Glo 3/7 reagent was added to each well for 2 h with constant shaking at room temperature. Luminescence was measured using a BMG Labtech FLUOstar Optimi plate reader. Cytotoxicity was evaluated by CellTox Green® cytotoxicity assay (Promega). Briefly, 10,000 cells/well were plated overnight in a 96-well plate. Cells were treated as described in the figure legends for the indicated time period. Fluorescence was measured at 485–500 nmEx/520–530 nmEm using a BMG Labtech FLUOstar Optimi plate reader.
Fig. 4 eEF2K aids the survival of TSC2^−/− cells under glucose-starved conditions. […] Cells were then lysed and samples containing equal amounts of protein were analysed by western blot using the indicated antibodies. Values given below each lane show quantitation of the signal for LC3II, corrected for the actin signal or P-eEF2, corrected for the eEF2 signal from multiple experiments as in (A), mean ± SEM (control cells without treatment = 1; n = 3). (B) Cells were treated for 48 h as described in (A), except that they were processed for caspase 3/7 assay. […]

[1] = test system: autolysosome formation in A549 cells; assay: autophagic flux analysis with mCherry-EGFP-LC3B in A549 cells; format: cell-based, human; settings: AZD8055 1 μM, after release from BafA1, Fig. 2C, D
Description: A549 cells were transfected with a vector encoding mCherry-EGFP-LC3B, a tandem fluorescent-tagged LC3 (a kind gift from Dr. Terje Johansen, Biochemistry Department, Institute of Medical Biology, University of Tromsø, Norway), using lipofectamine 3000 (L3000001, Life technologies) following manufacturer's instructions. After treatment cells were washed twice in phosphate buffered saline (PBS, 18912-014, Gibco) and then fixed in 4% formaldehyde (F8775, Sigma-Aldrich) for 15 min. Fixed cells were washed thrice in PBS and permeabilized with 0.1% Triton-X 100 for 5 min. Cells were then again washed thrice in PBS and mounted in ProLong® Gold Antifade Mountant (P36935, Life technologies). Cells were visualized using Leica TCS SP8X/MP microscope equipped with a tuneable white light laser using a 40 × oil immersion objective lens (NA = 1.30) numerical aperture objective. Green/red fluorescence ratio (GFP loss upon autolysosome formation) was measured using the Leica Application Suite X (LAS X) software (version 1.1.0).
We also examined the progression of autolysosome formation using a tandem fluorescently-tagged LC3 (mCherry-EGFP-LC3B) which allowed us to determine autophagosome and lysosome fusion by evaluating loss of GFP fluorescence. Green (GFP) but not red (mCherry) fluorescence is quenched by protonation in response to acidified intra-lysosomal pH upon autolysosome fusion. […]

LC3II in A549 cells = assay: LC3 modification in A549 cells (western blot); format: cell-based, human; settings: untransfected A549; AZD8055 1 μM; Fig. 2E
Description: as §1, §2
Cells were then treated with 10 mM 2-deoxyglucose (2DG), rapamycin (100 nM), AZD8055 (1 μM) or MG132 (10 μM) for 16 h. Cells were then lysed and samples containing equal amounts of protein were analysed by western blot using the indicated antibodies. Values given below each lane show quantitation of the signal for LC3II, corrected for the actin signal from multiple experiments as in (A) expressed as LC3II normalized to actin, mean ± SEM (control cells without treatment = 1; n = 3). (B) A549 cells were cultured as in (A) to induce eEF2K knockdown. […] (D) Data quantification of C, data are presented as means ± SEM. […]

[2] = test system: GST-BHMT cleavage (autophagic flux) in A549 cells; assay: GST-BHMT cleavage assay in A549 cells; format: cell-based, human; settings: AZD8055 1 μM, 16 h, Fig. 2B
Description: Cells were lysed as above. […] The precipitated GST-BHMT was washed three times in the ice cold lysis buffer. Precipitates were then boiled in SDS-PAGE sample buffer, resolved by SDS-PAGE and analysed by western blotting using anti-GST antibody.
Cells were then treated with 10 mM 2-deoxyglucose (2DG), rapamycin (100 nM), AZD8055 (1 μM) or MG132 (10 μM) for 16 h. Cells were then lysed and samples containing equal amounts of protein were analysed by western blot using the indicated antibodies. […] (B) A549 cells were cultured as in (A) to induce eEF2K knockdown. A549 cells were transiently transfected with the GST-BHMT construct and maintained in full media in the presence or absence of AZD8055 (1 μM) for 16 h, in the presence of leupeptin and E64d. GST-BHMT was precipitated with glutathione agarose from the whole cell extracts (bottom panel). […] (E) Untransfected A549 cells were treated with AZD8055 and BafA1 as described in A, cell lysates were collected at T0, 1 and 3 h for immunoblotting analysis.

[3] = 2DG 10 mM, rapamycin 100 nM, MG132 10 μM, Fig. 2A

caspase activity in control conditions (TSC2−/− MEFs): decreased
SMILES: CO[C@H]1C[C@@H]2CC[C@@H](C)[C@@](O)(O2)C(=O)C(=O)N2CCCC[C@H]2C(=O)O[C@H]([C@H](C)C[C@@H]2CC[C@@H](O)[C@H](OC)C2)CC(=O)[C@H](C)/C=C(\C)[C@@H](O)[C@@H](OC)C(=O)[C@H](C)C[C@H](C)/C=C/C=C/C=C/1C [rapamycin]
phosphorylation of eEF2 (P-eEF2 in A549 cells; [3]): induced the phosphorylation of eEF2
eEF2 phosphorylation (P-eEF2 in TSC2−/− MEFs): large increase
adverse effect of glucose starvation (caspase 3/7 activity) countered (TSC2−/− MEFs): fully

SMILES: COc1ccc(-c2ccc3c(N4CCOC[C@@H]4C)nc(N4CCOC[C@@H]4C)nc3n2)cc1CO [AZD8055]
phosphorylation of eEF2 (P-eEF2 in A549 cells; [3]): induced the phosphorylation of eEF2
phosphorylation of eEF2 (P-eEF2 in A549 cells; Fig. 2B): marked increase
green/red ratio (mCherry-EGFP-LC3B) in comparison to control cells [1]: remained low
LC3II/I ratio (LC3II in A549 cells): further increase
cleavage of GST-BHMT [2]: marked increase
